Reference: article PMC2666795, “Bacterial Genome Partitioning: N-Terminal Domain of IncC Protein Encoded by Broad-Host-Range Plasmid RK2 Modulates Oligomerisation and DNA Binding” (Journal of Molecular Biology, 2009)

Columns and labels:
IncC1 = target: T1, IncC1 (Escherichia coli, UniProt P07673); test: velocity sedimentation (analytical ultracentrifugation), dimer formation; type: binding; details: read-out: Kapp
T1 construct: gene incC; full-length 364 aa, His6-tagged from modified pET28a (pGBT342), expressed in E. coli BL21, nickel-agarose; thrombin cleavage of tag described; monomer 40 kDa, dimer 80 kDa with ATP
T1 sequence (P07673 1-364): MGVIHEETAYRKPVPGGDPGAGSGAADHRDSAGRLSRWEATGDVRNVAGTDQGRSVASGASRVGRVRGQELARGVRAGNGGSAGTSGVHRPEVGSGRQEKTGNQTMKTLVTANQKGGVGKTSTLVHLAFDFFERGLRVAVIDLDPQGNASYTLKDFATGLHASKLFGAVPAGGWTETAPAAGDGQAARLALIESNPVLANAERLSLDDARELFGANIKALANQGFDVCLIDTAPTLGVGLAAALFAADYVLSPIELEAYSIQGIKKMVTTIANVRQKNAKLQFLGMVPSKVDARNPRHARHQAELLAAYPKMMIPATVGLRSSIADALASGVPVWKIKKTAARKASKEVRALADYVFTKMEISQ

IncC2 = target: T2, IncC2 (Escherichia coli, UniProt P07673); test: glutaraldehyde cross-linking with the IncC1 N-terminal domain; details: 2 mM ADP, 10 mM MgCl2, 25 mM phosphate pH 7.5; nucleotide-dependent binding of NTD to IncC2
T2 construct: gene incC; short form 259 aa (IncC1 without residues 1-105), His6-tagged from modified pET28a (pGBT343), expressed in E. coli BL21, nickel-agarose; thrombin cleavage of tag described
T2 sequence (P07673 106-364): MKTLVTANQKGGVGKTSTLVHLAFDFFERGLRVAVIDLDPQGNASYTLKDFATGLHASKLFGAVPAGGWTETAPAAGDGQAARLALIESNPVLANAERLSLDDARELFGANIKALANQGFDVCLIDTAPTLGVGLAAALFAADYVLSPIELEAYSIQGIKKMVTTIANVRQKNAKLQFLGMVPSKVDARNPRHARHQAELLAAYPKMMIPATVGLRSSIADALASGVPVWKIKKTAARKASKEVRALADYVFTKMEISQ

[1] = target: the molecule itself; test: AUC; velocity sedimentation, 30 μM IncC1 with varying ATP concentrations, with magnesium; 50 mM sodium phosphate pH 8.0, 100 mM NaCl, 40,000 rpm, 4 °C
[2] = target: T3, IncC2 (259 aa), short ParA protein made from the second translational start of incC of plasmid RK2 (plasmid RK2 (IncP-1), UniProt P07673 106-364); test: cross-linking; glutaraldehyde 0-0.1%, with 2 mM ATP; 5 μg of each protein in 50 μl, 10 mM MgCl2, 25 mM phosphate buffer pH 7.5; 30 min 37 °C, then 30 min 30 °C with glutaraldehyde; SDS-PAGE, Western blot with anti-IncC; details: both partners purified
T3 construct: IncC2, the product of the second translational start of incC of plasmid RK2, 259 aa; it lacks the N-terminal domain (amino acids 1-105) of IncC1; numbers count on IncC1; also called His6-IncC2; source: E. coli BL21 (printed: C600 BL21), modified pET28a vector, purified (nickel-agarose)
T3 sequence (looked up): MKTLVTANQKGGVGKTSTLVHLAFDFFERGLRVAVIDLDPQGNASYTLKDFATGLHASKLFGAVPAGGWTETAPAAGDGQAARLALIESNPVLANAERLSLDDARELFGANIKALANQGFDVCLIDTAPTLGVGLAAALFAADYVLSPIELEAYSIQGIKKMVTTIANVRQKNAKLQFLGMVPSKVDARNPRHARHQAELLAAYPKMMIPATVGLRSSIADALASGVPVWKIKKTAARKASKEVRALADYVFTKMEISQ

Nc1ncnc2c1ncn2[C@@H]1O[C@H](COP(=O)(O)OP(=O)(O)OP(=O)(O)O)[C@@H](O)[C@H]1O [ATP] showed a Kd (IncC1) of 7.7 µM.

With Nc1ncnc2c1ncn2[C@@H]1O[C@H](COP(=O)(O)OP(=O)(O)O)[C@@H](O)[C@H]1O [ADP] the Kd (IncC1) was 54 µM and the “glutaraldehyde cross-linking with the IncC1 N-terminal domain” value (IncC2) was “In the presence of either ATP or ADP, the NTD was found to interact with IncC2”.

B1: IncC1 (364 aa), long ParA protein encoded by incC of broad-host-range plasmid RK2 (natural protein, plasmid RK2 (IncP-1), UniProt P07673 1-364, looked up)
chain: MGVIHEETAYRKPVPGGDPGAGSGAADHRDSAGRLSRWEATGDVRNVAGTDQGRSVASGASRVGRVRGQELARGVRAGNGGSAGTSGVHRPEVGSGRQEKTGNQTMKTLVTANQKGGVGKTSTLVHLAFDFFERGLRVAVIDLDPQGNASYTLKDFATGLHASKLFGAVPAGGWTETAPAAGDGQAARLALIESNPVLANAERLSLDDARELFGANIKALANQGFDVCLIDTAPTLGVGLAAALFAADYVLSPIELEAYSIQGIKKMVTTIANVRQKNAKLQFLGMVPSKVDARNPRHARHQAELLAAYPKMMIPATVGLRSSIADALASGVPVWKIKKTAARKASKEVRALADYVFTKMEISQ
notes: IncC1, the product of the first translational start of incC (parA) of IncP-1 plasmid RK2, 364 aa; also called His6-IncC1; His-IncC1; source: E. coli BL21 (printed: C600 BL21), modified pET28a vector, purified (nickel-agarose)
For B1, the “stoichiometry N” value [1] was 2.

B2: N-terminal domain of IncC1 (amino acids 1-105) (domain or fragment, plasmid RK2 (IncP-1), UniProt P07673 1-105, looked up)
chain: MGVIHEETAYRKPVPGGDPGAGSGAADHRDSAGRLSRWEATGDVRNVAGTDQGRSVASGASRVGRVRGQELARGVRAGNGGSAGTSGVHRPEVGSGRQEKTGNQT
notes: N-terminal domain of IncC1 of plasmid RK2, amino acids 1-105, 11 kDa; also called NTD; IncC1 NTD; source: E. coli, expressed from pSMB315 (pGBT340 with incC1-NTD), purified
B2: binds [2].
